Results published in patent US20140335083A1, “METHODS OF TREATMENT AND PREVENTION OF EYE DISEASES” (GLAXO GROUP LIMITED, priority 2011, published 2014).
Where two headings read alike, the source gives them in different places. Values belong to the compound of their own block, whether it stands above or below them.

Key:
[1] = tested on: retinal neovascularization in C57BL/6 mice; assay: Oxygen-induced retinopathy, area of retinal neovascularization; assay type: in vivo; settings: 5 ug peri-ocularly every 5 days
Protocol: C57BL/6 mice placed in 75% O2 at postnatal day (P) 7 and at P12 were returned to room air and treatment initiated with compound or vehicle. At P17, the area of retinal NV on the surface of the retina was measured as described previously (Shen et al., 2007). Briefly, P17 mice were given an intraocular injection of 1 μl of rat anti-mouse platelet endothelial cell adhesion molecule-1 (PECAM-1) antibody (Pharmingen, San Jose, Calif., USA); after 12 h, they were euthanized, and eyes were fixed in PBS-buffered formalin for 5 h at room temperature. Retinas were dissected, washed, and incubated with goat-anti rat polyclonal antibody conjugated with Alexa 488 (Invitrogen, Carlsbad, Calif., USA) at 1:500 dilution at room temperature for 45 min and flat mounted. An observer masked with respect to treatment group measured the area of NV per retina by image analysis.
(see, FIGS. 12 and 13). In systemic experiments both eyes were examined and no significant differences were observed between CCR3 inhibitor '994 and vehicle treated groups. In topical experiments no significant differences were noted between CCR3 inhibitor '994 and vehicle groups nor treated and fellow eye in the CCR3 inhibitor '994 treated group. […] Consequently SU4312 acts similarly on retinal neovascularization to that of an alternative receptor tyrosine kinase inhibitor pazopanib which was effective in limiting choroidal neovascularization.

[2] = tested on: laser-induced model of CNV AMD; settings: oral dosing; Mizutani et al., 2011; cited from earlier work
[3] = tested on: laser-induced CNV in Cynomolgus monkey; assay: Laser-induced choroidal neovascular AMD study in the Cynomolgus monkey, Grade IV lesions; assay type: in vivo
Protocol: Cynomolgus monkeys were dosed with vehicle or the CCR3 antagonist tool compound the '415 compound as shown in Table A for 29 days with laser occurring […]. […]
The macula of each eye underwent laser treatment with a 532-nm diode green laser burns (OcuLight GL, IRIDEX Corp Inc, Mountain View, Calif.) using a slit lamp delivery system and a Kaufman-Wallow (Ocular Instruments Inc, Bellevue, Wash.) plano fundus contact lens. Animals were anesthetized and nine areas symmetrically placed in the macula of each eye. The laser parameters included a 75-micron spot size and 0.1-second duration. The power setting used was assessed by the ability to produce a blister and a small haemorrhage. Unless haemorrhage is observed with the first laser treatment, a second laser spot will be placed adjacent to the first following the same laser procedure (except the wattage would be adjusted). For areas not adjacent to the fovea, the initial power setting was 500 mW; if a second spot is placed, the power was set to 650 mW. For the area adjacent to the fovea, the power settings was 400 mW (initial treatment) and 550 mW (second treatment). […]
Animals were fasted before fluorescein angiography for at least 2 hours prior to being anesthetized and the eyes dilated with a mydriatic agent. […] Comparison of the incidence of Grade IV lesions between groups was evaluated.

Cynomolgus monkey CCR3 = target: T1, Cynomolgus monkey CCR3 (Macaca fascicularis, UniProt Q9BDS8); assay: Cynomolgus monkey whole blood eotaxin-stimulated eosinophil shape change assay; assay type: cell-based
T1 construct: from tissue; host or cells: Cynomolgus monkey whole blood (eosinophils)
T1 sequence (Q9BDS8 1-355): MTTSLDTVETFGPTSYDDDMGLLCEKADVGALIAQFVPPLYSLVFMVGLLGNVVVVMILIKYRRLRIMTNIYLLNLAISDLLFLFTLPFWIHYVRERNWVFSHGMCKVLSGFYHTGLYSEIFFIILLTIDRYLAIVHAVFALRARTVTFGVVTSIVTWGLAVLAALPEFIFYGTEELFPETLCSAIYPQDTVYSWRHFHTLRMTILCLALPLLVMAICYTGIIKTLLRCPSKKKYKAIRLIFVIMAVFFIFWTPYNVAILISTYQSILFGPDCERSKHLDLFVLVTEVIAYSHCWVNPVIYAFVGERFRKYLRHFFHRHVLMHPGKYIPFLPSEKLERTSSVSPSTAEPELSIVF
Protocol: Blood (10 mL) was taken from Cynomolgus monkeys and 1.1 ml of 3.8% sodium citrate solution added. Aliquots (90 μl) were incubated with antagonist at room temperature for 10 minutes then transferred to BSA-coated micronic tubes containing agonist (10 μl human eotaxin (Peprotech) Eotaxin was present at final concentrations between 0 and 1000 nM. The cells were incubated at 37° C. for a further 4 minutes before addition of […] of ice-cold fixation buffer (a ¼ dilution of 1x Cellfix (Becton Dickinson)). After a minimum of 2 minutes the fixed samples were transferred into 2 ml of ice cold erythrocyte lysis buffer (155 mM NH4Cl, 10 mM KHCO3) and incubated on ice until lysis was complete (˜30 minutes). The mean forward scatter of the eosinophil population was then determined on a FACScalibur flow cytometer.
The concentration response curve of eotaxin-1 on eosinophil shape change in Cynomolgus whole blood and the effect of pre-incubation of 10 nM and 100 nM the '415 compound is shown in FIG. 11.

[4] = target: T2, Cynomolgus whole blood CCR3 (Macaca fascicularis, UniProt Q9BDS8); assay: Fractional receptor occupancy at trough in Cynomolgus monkey; assay type: in vivo; settings: at trough (8 hours); both 9 mg/kg/day and 60 mg/kg/day, TID
T2 construct: from tissue; host or cells: Cynomolgus monkey whole blood (eosinophils)
T2 sequence (Q9BDS8 1-355): T1 sequence (Q9BDS8 1-355)

[5] = Exposure in Cynomolgus monkey; settings: in vivo

SMILES: CN(C)c1ccc(/C=C2\C(=O)Nc3ccccc32)cc1 [SU4312]
- effect on retinal neovascularization [1]: effective inhibitor
- p, reduction in retinal neovascularization, treated versus fellow (non-treated) eyes [1]: < 0.004
- p, reduction in retinal neovascularization, treated versus vehicle treated eyes [1]: < 0.003

SMILES: Cc1ccc[n+]([O-])c1C(=O)N1CCC(=CC(=O)NC2CCN(Cc3ccc4cc(F)ccc4c3)C2)CC1 (centres unmarked) [YM-344031]
- efficacy in a laser-induced model of CNV AMD [2]: effective

- Kb (Cynomolgus monkey CCR3; depending on experiment, read-out: pA2, potency against Cynomolgus monkey CCR3 (converted)): 0.01 to 0.1 µM
- Kb (Cynomolgus monkey CCR3; eotaxin-1 stimulated eosinophil shape change in Cynomolgus whole blood, read-out: mean pA2 (Schild analysis) (converted)): 0.0158 µM
- fractional receptor occupancy [4]: > 95%
SMILES: Cn1nnc(CNC(=O)NC[C@H]2CN(Cc3ccc(Cl)c(Cl)c3)CCO2)n1 [the '415 compound, (S)-1-((4-(3,4-dichlorobenzyl)morpholin-2-yl)methyl)-3-((2-methyl-2H-tetrazol-5-yl)methyl)urea]
- effect on the generation of grade IV lesions ([3]; 20 mg/kg TID po, fluorescence angiography at 16, 24 and 30 days post-laser): statistically robust effect
- effect on the number of grade IV lesions ([3]; lower dose (3 mg/kg TID po)): not statistically different from controls
- inhibition of human eotaxin-induced eosinophil shape change (Cynomolgus monkey CCR3; Cynomolgus whole blood): concentration-dependent, surmountable inhibition
- exposure in Cynomolgus monkey [5]: reasonable exposure in this primate with low inter-animal variability
